The target of this assay is T1, human GPBAR1 receptor (Homo sapiens, UniProt Q8TDU6).
T1 construct: expressed in transfected cells
T1 sequence (Q8TDU6 1-330): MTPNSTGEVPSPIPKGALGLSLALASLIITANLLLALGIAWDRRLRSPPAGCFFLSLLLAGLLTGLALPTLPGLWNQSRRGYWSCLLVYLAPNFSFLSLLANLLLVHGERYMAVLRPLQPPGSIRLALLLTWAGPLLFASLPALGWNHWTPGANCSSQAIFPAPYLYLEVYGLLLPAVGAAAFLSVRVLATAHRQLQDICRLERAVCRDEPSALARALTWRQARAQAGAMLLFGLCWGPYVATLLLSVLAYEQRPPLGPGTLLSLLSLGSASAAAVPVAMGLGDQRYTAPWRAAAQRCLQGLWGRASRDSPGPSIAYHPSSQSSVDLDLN
Description: functional cAMP assay in CHO-dhfr(minus) cells expressing human GPBAR1 receptors. The class given is cell-based. The following applies: cAMP increase (TR-FRET) in CHO-dhfr(minus) cells expressing human GPBAR1; compounds incubated 30 min at 30° C. As for the experimental part:
The final clone was verified by DNA sequence analysis. The plasmid was transfected into CHO cells deficient in dihydrofolate reductase activity (CHO-dhfr−) using Lipofectamine plus (Invitrogen). Clones were isolated in limited dilution conditions and identified by activities in the cAMP assay using lithocholic acid as agonist.
The growth medium was exchanged with Krebs Ringer Bicarbonate buffer with 1 mM IBMX and incubated at 30° C. for 30 min. Compounds were added to a final assay volume of 100 μl and incubated for 30 min at 30° C. […] The time-resolved energy transfer is measured by a TRF reader (Evotec Technologies GmbH, Hamburg Germany), equipped with a ND:YAG laser as excitation source.
EC50 values were determined using Activity Base analysis (ID Business Solution, Limited). […] Specificity for GPBAR1 was tested in non-transfected CHO cells in the same assay as above.

Our source for the EC50 values is US8729091B2, “4-phenoxy-nicotinamide or 4-phenoxy-pyrimidine-5-carboxamide compounds” (Hoffmann-La Roche Inc., priority 2010, dated 2014).

In the case of `Cc1cc(Oc2cc(Cl)c(C(=O)O)cc2Cl)c(C(=O)N2CCN(C3CC3)c3ccccc32)cn1` [Example 66, 2,5-Dichloro-4-[5-(4-cyclopropyl-3,4-dihydro-2H-quinoxaline-1-carbonyl)-2-methyl-pyridin-4-yloxy]-benzoic acid], a half-maximal effect (EC50) was put at 300 nM. This counts as sub-micromolar.
As for `O=C(NCCO)c1cc(Cl)c(Oc2ccncc2C(=O)N2CCN(C3CC3)c3ccccc32)cc1Cl` [Example 49, 2,5-Dichloro-4-[3-(4-cyclopropyl-3,4-dihydro-2H-quinoxaline-1-carbonyl)-pyridin-4-yloxy]-N-(2-hydroxy-ethyl)-benzamide], the EC50 was 40 nM.
For the compound `O=C(O)CNC(=O)c1cc(Cl)c(Oc2ccncc2C(=O)N2CCN(C3CC3)c3ccccc32)cc1Cl` [Example 30, {2,5-Dichloro-4-[3-(4-cyclopropyl-3,4-dihydro-2H-quinoxaline-1-carbonyl)-pyridin-4-yloxy]-benzoylamino}-acetic acid], the EC50 is 400 nM.
Turning to `CN(C)c1ccccc1N(C)C(=O)c1cnccc1Oc1cc(Cl)ccc1Cl` [Example 16, 4-(2,5-Dichloro-phenoxy)-N-(2-dimethylamino-phenyl)-N-methyl-nicotinamide], the EC50 amounted to 40 nM.
For `O=C(NCc1nnn[nH]1)c1cc(Cl)c(Oc2ccncc2C(=O)N2CCN(C3CC3)c3ccccc32)cc1Cl` [Example 39, 2,5-Dichloro-4-[3-(4-cyclopropyl-3,4-dihydro-2H-quinoxaline-1-carbonyl)-pyridin-4-yloxy]-N-(1H-tetrazol-5-ylmethyl)-benzamide], the EC50 amounted to 400 nM.
The same measure for `O=C(c1c[n+]([O-])ccc1Oc1cc(Cl)ccc1Cl)N1CCN(C2CC2)c2ccccc21` [Example 75, (4-Cyclopropyl-3,4-dihydro-2H-quinoxalin-1-yl)-[4-(2,5-dichloro-phenoxy)-1-oxy-pyridin-3-yl]-methanone]: 10 nM; for `Cc1cc(Oc2cc(Cl)c(Br)cc2Cl)c(C(=O)N2CCN(C3CC3)c3ccccc32)cn1` [Example 64, [4-(4-Bromo-2,5-dichloro-phenoxy)-6-methyl-pyridin-3-yl]-(4-cyclopropyl-3,4-dihydro-2H-quinoxalin-1-yl)-methanone]: 20 nM; for `CN(C)c1ncccc1N(C)C(=O)c1cnccc1Oc1cc(Cl)ccc1Cl` [Example 23, 4-(2,5-Dichloro-phenoxy)-N-(2-dimethylamino-pyridin-3-yl)-N-methyl-nicotinamide]: 200 nM.
Regarding `O=C(NC(CO)CO)c1cc(Cl)c(Oc2ccncc2C(=O)N2CCN(C3CC3)c3ccccc32)cc1Cl` [Example 51, 2,5-Dichloro-4-[3-(4-cyclopropyl-3,4-dihydro-2H-quinoxaline-1-carbonyl)-pyridin-4-yloxy]-N-(2-hydroxy-1-hydroxymethyl-ethyl)-benzamide], the EC50 is 300 nM.
Then `O=C(c1cnccc1Oc1cc(Cl)c(CO)cc1Cl)N1CCN(C2CC2)c2ccccc21` [Example 55, (4-Cyclopropyl-3,4-dihydro-2H-quinoxalin-1-yl)-[4-(2,5-dichloro-4-hydroxymethyl-phenoxy)-pyridin-3-yl]-methanone], with 3 nM.
The compound `O=C(c1cnccc1Oc1cc(Cl)ccc1Cl)N1CCN(CC2CC2)c2ccccc21` [Example 6, (4-Cyclopropylmethyl-3,4-dihydro-2H-quinoxalin-1-yl)-[4-(2,5-dichloro-phenoxy)-pyridin-3-yl]-methanone] came in with an EC50 of 3 nM. This lies in the single-digit nanomolar range.
Then `CCOC(=O)CCNC(=O)c1cc(Cl)c(Oc2cc(C)ncc2C(=O)N2CCN(C3CC3)c3ccccc32)cc1Cl` [Example 67, 3-{2,5-Dichloro-4-[5-(4-cyclopropyl-3,4-dihydro-2H-quinoxaline-1-carbonyl)-2-methyl-pyridin-4-yloxy]-benzoylamino}-propionic acid ethyl ester], with 20 nM; and `CCOC(=O)C1CC1CN1CCN(C(=O)c2cnccc2Oc2cc(Cl)ccc2Cl)c2ccccc21` (centres unmarked) [Example 5, 2-{4-[4-(2,5-Dichloro-phenoxy)-pyridine-3-carbonyl]-3,4-dihydro-2H-quinoxalin-1-ylmethyl}-cyclopropanecarboxylic acid ethyl ester], with 1800 nM.
The same measure for `CCOC(=O)c1nnc(NC(=O)c2cc(Cl)c(Oc3ccncc3C(=O)N3CCN(C4CC4)c4ccccc43)cc2Cl)s1` [Example 47, 5-{2,5-Dichloro-4-[3-(4-cyclopropyl-3,4-dihydro-2H-quinoxaline-1-carbonyl)-pyridin-4-yloxy]-benzoylamino}-[1,3,4]thiadiazole-2-carboxylic acid ethyl ester]: 100 nM; for `CN(C(=O)c1cnccc1Oc1cc(Cl)ccc1Cl)c1cccc2c1NCCC2` [Example 24, 4-(2,5-Dichloro-phenoxy)-N-methyl-N-(1,2,3,4-tetrahydro-quinolin-8-yl)-nicotinamide]: 100 nM; for `Cn1cc(NC(=O)c2cc(Cl)c(Oc3ccncc3C(=O)N3CCN(C4CC4)c4ccccc43)cc2Cl)cc1C(=O)O` [Example 42, 4-{2,5-Dichloro-4-[3-(4-cyclopropyl-3,4-dihydro-2H-quinoxaline-1-carbonyl)-pyridin-4-yloxy]-benzoylamino}-1-methyl-1H-pyrrole-2-carboxylic acid]: 100 nM.
The compound `CN1CCN(C(=O)c2cnccc2Oc2cc(Cl)ccc2Cl)c2ccccc21` [Example 4, [4-(2,5-Dichloro-phenoxy)-pyridin-3-yl]-(4-methyl-3,4-dihydro-2H-quinoxalin-1-yl)-methanone] came in with a 50% effective concentration (EC50) of 3 nM. This EC50 lies about 33-fold lower than the previous one.
The compound `Cc1cc(Oc2cc(Cl)ccc2Cl)c(C(=O)N2CCN(C3CC3)c3ccccc32)c(Cl)n1` [Example 73, [2-Chloro-4-(2,5-dichloro-phenoxy)-6-methyl-pyridin-3-yl]-(4-cyclopropyl-3,4-dihydro-2H-quinoxalin-1-yl)-methanone] came in with an EC50 of 50 nM.
Consider `O=C(Nc1nncs1)c1cc(Cl)c(Oc2ccncc2C(=O)N2CCN(C3CC3)c3ccccc32)cc1Cl` [Example 48, 2,5-Dichloro-4-[3-(4-cyclopropyl-3,4-dihydro-2H-quinoxaline-1-carbonyl)-pyridin-4-yloxy]-N-[1,3,4]thiadiazol-2-yl-benzamide], for which the EC50 worked out at 200 nM. This EC50 is about 4-fold higher than that of the compound before.
The compound `Cc1cc(Oc2cc(Cl)c(C(=O)NCCC(=O)O)cc2Cl)c(C(=O)N2CCN(C3CC3)c3ccccc32)cn1` [Example 68, 3-{2,5-Dichloro-4-[5-(4-cyclopropyl-3,4-dihydro-2H-quinoxaline-1-carbonyl)-2-methyl-pyridin-4-yloxy]-benzoylamino}-propionic acid] displayed an EC50 of 200 nM.
`CN(C(=O)c1cnccc1Oc1cc(Cl)ccc1Cl)c1cc(F)c(Cl)cc1N(C)C1CC1` [Example 25, N-[4-Chloro-2-(cyclopropyl-methyl-amino)-5-fluoro-phenyl]-4-(2,5-dichloro-phenoxy)-N-methyl-nicotinamide] displayed an EC50 of 1700 nM.
The same measure for `COc1ncccc1N(C)C(=O)c1cnccc1Oc1cc(Cl)ccc1Cl` [Example 15, 4-(2,5-Dichloro-phenoxy)-N-(2-methoxy-pyridin-3-yl)-N-methyl-nicotinamide]: 100 nM.
The same measure for `CCOC(=O)COc1cc(Cl)c(Oc2ccncc2C(=O)N2CCN(C3CC3)c3ccccc32)cc1Cl` [Example 58, {2,5-Dichloro-4-[3-(4-cyclopropyl-3,4-dihydro-2H-quinoxaline-1-carbonyl)-pyridin-4-yloxy]-phenoxy}-acetic acid ethyl ester]: 30 nM.
